Laboratory results as given in US12275688B2, “Crystalline solids of MEK inhibitor N-((R)-2,3-dihydroxypropoxy)-3,4-difluoro-2-(2-fluoro-4-iodo-phenylamino)-benzamide and uses thereof” (SpringWorks Therapeutics, Inc., priority 2021, dated 2025).

How the values were obtained:
Format in all cases: physicochemical
[1] = Water activity studies of hydrates at 23° C.; conditions: water activities (aw) 0.6-0.99
Experimental: Water activity studies of the stable hydrated Forms VI and XIX were conducted to determine their relative thermodynamic stabilities. The studies were conducted at 23° C. in various water/ethanol mixtures to provide water activities (aw) from 0.6-0.99. The water activity range includes the approximate water activity of the current final isolation step of the mirdametinib manufacturing process. Saturated suspensions were prepared by stirring an excess of mirdametinib in the test solvents for 16 hours. The suspensions were filtered and transferred onto mixtures containing equivalent amounts of Form VI and Form XIX. […] The hydrates may be kinetically favored at higher water activities.

[2] = Solid-state stability of crystal forms at ambient conditions; conditions: ambient conditions
Excerpt: The following sections describe and summarize the physical properties of each of the crystal forms observed for mirdametinib.

[3] = Drying of certain forms via vacuum oven at 45° C.; conditions: overnight in vacuum oven at 45° C.; PXRD at about 70% ambient lab humidity
Experimental: Drying studies for certain forms were conducted overnight in a vacuum oven at 45° C. After drying, samples were equilibrated to RT for 10 min. and analyzed by PXRD at about 70% ambient lab humidity.

[4] = Desolvation/dehydration by heating in TGA pan to 100° C.; conditions: 15° C./min from 25 to 100° C., 5 min. hold at 100° C., air-cooled to RT
Experimental: Desolvation/dehydration studies of certain forms were conducted in a TGA pan with loose lid at a heating rate of 15° C./min from 25 to 100° C. with a 5 min. hold at 100° C. Samples were air-cooled to RT on the TGA and analyzed by PXRD if crystalline. […] PXRD indicated Form I.

[5] = Toluene-spiked slurry studies of Form V in water:ethanol; conditions: water:ethanol (1.1/0.5 v/v) overnight at RT
Excerpt: The process-relevant toluene solvate (Form V) was stirred in water:ethanol (1.1/0.5 v/v) overnight at RT with varying amounts of added toluene. The suspensions were filtered, and solids analyzed by PXRD.

SMILES | Relative stability versus hydrate Forms VI and XIX [1] | Stable at ambient conditions for [2] | Form after vacuum oven drying (PXRD) [3] | Result of desolvation/dehydration by heating [4] | Form after slurry (PXRD) ([5]; 0.5% added toluene (relative to mirdametinib weight)) | Form after slurry (PXRD) ([5]; 1% and 2% added toluene) | Form after slurry (PXRD) ([5]; no added toluene)
O=C(NOC[C@H](O)CO)c1ccc(F)c(F)c1Nc1ccc(I)cc1F [Form IV, N—((R)-2,3-dihydroxypropoxy)-3,4-difluoro-2-(2-fluoro-4-iodo-phenylamino)-benzamide] | more stable at water activities (aw) 0.6-0.99 than hydrate Forms VI and XIX |  |  |  |  |  | 
O=C(NOC[C@H](O)CO)c1ccc(F)c(F)c1Nc1ccc(I)cc1F [Form V, N—((R)-2,3-dihydroxypropoxy)-3,4-difluoro-2-(2-fluoro-4-iodo-phenylamino)-benzamide] |  | ≥ 10 days | Remained unchanged | melted and solidified in molten, amorphous state, possible decomposition | converted to mostly Form IV with some lesser amount of Form V | higher relative amounts of Form V were observed | converted to phase-pure Form IV
